In patent US8404677B2, “Kinase inhibitors” (Genosco, priority 2009, dated 2013):

What was measured:
HCC-2998 = assay: cells; type: cell-based; details: HCC-2998 (Colon Cancer)
T-47D = assay: cells; type: cell-based; details: T-47D (Breast Cancer)
K-562 = assay: cells; type: cell-based; details: K-562 (Leukemia)
[1] = tested on: TNF-α release in THP-1 cells, IgG stimulation; assay: SYK dependent TNF-α release assay (IgG stimulation); type: cell-based, human
Protocol: Compounds of the invention were tested for their TNF-α release effect on THP-1 cells. For SYK dependent TNF-α release assay (i.e., via IgG stimulation), THP-1 cells derived from human monocytic cells were obtained from the American Type Culture Collection (ATCC, Manassas, Va.). This cell line was maintained with an Roswell Park Memorial Institute (RPMI) medium (GIBCO™) containing 10 fetal bovine serum (FBS; GIBCO™) and 0.05 mM 2-mercaptoethanol. The THP-1 cells were seeded at 1×10^5 cells/100 μL/well into human IgG ([…], INVITROGEN™)-coated 96 well culture plate, and serially diluted compound was then added. After an 18-hour incubation period at 37° C., supernatants were collected for the determination of the TNF-α level by enzyme-linked immunosorbent assay (ELISA), and the remaining cells were subjected to an MTT (yellow tetrazolium salt) assay to determine the cytotoxic effects of compound.

SYK = SYK (Homo sapiens, UniProt P43405); assay: In vitro kinase inhibition, Ambit Biosciences panel; type: binding; set-up: purchased Ambit Biosciences; details: lower numbers indicate stronger activities
Protocol: (§1) Up to 518 different kinases have been identified in humans. They act on small molecules such as lipids, carbohydrates, amino acids, and nucleotides. To determine the scope of inhibitory effects of a representative compound of Formula (I) on known kinases, Compound 6 was tested against 104 commercially available kinases (Ambit Biosciences™) in vitro. 104 kinases included ABL1(E255K)-phosphorylated, ABL1(T315I)-phosphorylated, ABL1-phosphorylated, ACVR1B, ADCK3, AKT1, AKT2, ALK, AURKA, AURKB, AXL, BMPR2, BRAF, BRAF(V600E), BTK, CDK11, CDK2, CDK3, CDK7, CDK9, CHEK1, CSF1R, CSNK1D, CSNK1G2, DCAMKL1, DYRK1B, EGFR, EGFR(L858R), EPHA2, ERBB2, ERBB4, ERK1, FAK, FGFR2, FGFR3, FLT1, FLT3, FLT4, GSK3B, IGF1R, IKK-α, IKK-β, INSR, JAK2(JH1domain-catalytic), JAK3(JH1domain-catalytic), JNK1, JNK2, JNK3, KIT, KIT(D816V), KIT(V559D,T670I), LKB1, LRRK2, LRRK2(G2019S), MAP3K4, MAPKAPK2, MARK3, MEK1, MEK2, MET, MKNK1, MKNK2, MLK1, MTOR, p38-alpha, p38-beta, PAK1, PAK2, PAK4, PCTK1, PDGFRA, PDGFRB, PDPK1, PIK3C2B, PIK3CA, PIK3CG, PIM1, PIM2, PIM3, PKAC-alpha, PLK1, PLK3, PLK4, PRKCE, PYK2, RAFT, RET, RIOK2, ROCK2, RSK2, SNARK, SRC, SRPK3, SYK, TAK1, TGFBR1, TIE2, TRKA, TSSK1B, TYK2(JH1domain-catalytic), ULK2, VEGFR2, YANK3 and ZAP70.
(§2) Inhibition activity of Compound 6 was reported as percent control where lower numbers indicate stronger activities. […]

PYK2 = PYK2 (Homo sapiens, UniProt Q14289); assay: as above; type: binding; set-up: purchased Ambit Biosciences; details: lower numbers indicate stronger activities
Protocol: as §1, §2

HOP-92 = assay: cells; type: cell-based; details: HOP-92 (NSCLC)
SF-268 = assay: cells; type: cell-based; details: SF-268 (CNS Cancer)
A549/ATCC = assay: cells; type: cell-based; details: A549/ATCC (NSCLC)
SNB-19 = assay: cells; type: cell-based; details: SNB-19 (CNS Cancer)
HCT-15 = assay: cells; type: cell-based; details: HCT-15 (Colon Cancer)
SK-OV-3 = assay: cells; type: cell-based; details: SK-OV-3 (Ovarian Cancer)
UO-31 = assay: cells; type: cell-based; details: UO-31 (Renal Cancer)
OVCAR-8 = assay: cells; type: cell-based; details: OVCAR-8 (Ovarian Cancer)
DU-145 = assay: cells; type: cell-based; details: DU-145 (Prostate Cancer)
[2] = Homo sapiens, read-out: LC50 (the source's name)

Sequence of PYK2 (Q14289 whole entry): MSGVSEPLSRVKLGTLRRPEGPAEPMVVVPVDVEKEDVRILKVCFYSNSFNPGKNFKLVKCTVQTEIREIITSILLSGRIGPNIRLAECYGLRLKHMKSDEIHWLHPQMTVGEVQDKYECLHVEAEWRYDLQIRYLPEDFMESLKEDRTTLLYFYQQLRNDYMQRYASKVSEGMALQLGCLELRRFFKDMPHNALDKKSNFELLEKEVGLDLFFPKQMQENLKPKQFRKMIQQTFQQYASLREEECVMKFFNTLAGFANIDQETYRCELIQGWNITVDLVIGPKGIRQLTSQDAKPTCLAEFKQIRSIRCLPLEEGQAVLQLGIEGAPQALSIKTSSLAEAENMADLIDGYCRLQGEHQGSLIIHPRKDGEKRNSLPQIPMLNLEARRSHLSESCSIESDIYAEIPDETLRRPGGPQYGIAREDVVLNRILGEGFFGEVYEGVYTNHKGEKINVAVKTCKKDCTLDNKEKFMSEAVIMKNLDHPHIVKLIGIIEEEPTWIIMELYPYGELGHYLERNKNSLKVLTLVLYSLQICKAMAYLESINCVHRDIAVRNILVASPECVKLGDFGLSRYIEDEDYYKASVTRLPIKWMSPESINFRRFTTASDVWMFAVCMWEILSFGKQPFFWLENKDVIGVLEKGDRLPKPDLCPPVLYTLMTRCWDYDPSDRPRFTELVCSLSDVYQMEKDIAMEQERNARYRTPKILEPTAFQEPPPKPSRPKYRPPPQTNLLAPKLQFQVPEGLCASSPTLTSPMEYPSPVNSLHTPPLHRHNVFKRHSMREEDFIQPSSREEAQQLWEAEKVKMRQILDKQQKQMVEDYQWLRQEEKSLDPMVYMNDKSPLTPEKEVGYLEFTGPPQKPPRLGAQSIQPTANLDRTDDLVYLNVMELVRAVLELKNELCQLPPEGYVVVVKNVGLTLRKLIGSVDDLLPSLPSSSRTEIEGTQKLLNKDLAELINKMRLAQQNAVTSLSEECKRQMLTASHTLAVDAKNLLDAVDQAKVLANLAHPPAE

Molecule `O=c1[nH]ccc2nc(N3CCC(O)CC3)nc(Nc3cccc(C(F)(F)F)c3)c12` [Compound 6, 2-(4-hydroxypiperidin-1-yl)-4-(3-(trifluoromethyl)phenylamino)pyrido[4,3-d]pyrimidine-5(6H)-one] has a TGI (HCC-2998) of 38 µM, a GI50 (HCC-2998; Homo sapiens) of 11.2 µM and an IC50 (HCC-2998; Homo sapiens) of 25.1 µM. The CC50 (HCC-2998; [2]) was 100 µM, the GI50 (T-47D; Homo sapiens, T47D) was 3.09 µM and the IC50 (T-47D; Homo sapiens, T47D) was 8.51 µM. For the same molecule, the CC50 (T-47D; Homo sapiens, T47D, read-out: LC50 (the source's name)) was 100 µM, the TGI (T-47D) was 26.3 µM and the GI50 (K-562; Homo sapiens, K562) was 3.16 µM. For the same molecule, the IC50 (K-562; Homo sapiens, K562) was 3.98 µM, the CC50 (K-562; Homo sapiens, K562, read-out: LC50 (the source's name)) was 100 µM and the TGI (K-562) was 100 µM. For the same molecule, the inhibition at 0.3 µM ([1]; Homo sapiens, IgG stimulation, At 0.3 μM, THP-1, read-out: Inhibition of TNF-α Release (percentage inhibition)) was 51.9%, the inhibition at 1 µM ([1]; Homo sapiens, IgG stimulation, At 1 μM, THP-1, read-out: Inhibition of TNF-α Release (percentage inhibition)) was 83% and the “percentage inhibition of TNF-α release compared with R406” value ([1]; IgG stimulated release, 0.3 μM) was “greater than those exhibited by R406”. For the same molecule, the “% inhibition (reported as percent control)” value (SYK) was 8.4%, the “% inhibition (reported as percent control)” value (PYK2) was 32% and the TGI (HOP-92) was 100 µM. The GI50 (HOP-92; Homo sapiens) was 100 µM, the IC50 (HOP-92; Homo sapiens) was ≥ 100 µM and the CC50 (HOP-92; [2]) was 100 µM. For the same molecule, the GI50 (SF-268; Homo sapiens) was 3.09 µM, the IC50 (SF-268; Homo sapiens) was 12.9 µM and the CC50 (SF-268; [2]) was 100 µM. The TGI (SF-268) was 35.5 µM, the TGI (A549/ATCC) was 100 µM and the GI50 (A549/ATCC; Homo sapiens) was 3.8 µM. It also gave an IC50 (A549/ATCC; Homo sapiens) of 6.31 µM, a CC50 (A549/ATCC; [2]) of 100 µM and a GI50 (SNB-19; Homo sapiens) of 18.2 µM. The IC50 (SNB-19; Homo sapiens) was 64.6 µM, the CC50 (SNB-19; [2]) was 100 µM and the TGI (SNB-19) was 100 µM. For the same molecule, the TGI (HCT-15) was 31.6 µM, the GI50 (HCT-15; Homo sapiens) was 0.537 µM and the IC50 (HCT-15; Homo sapiens) was 0.759 µM. The CC50 (HCT-15; [2]) was 100 µM, the GI50 (SK-OV-3; Homo sapiens) was 0.49 µM and the IC50 (SK-OV-3; Homo sapiens) was 20 µM. The CC50 (SK-OV-3; [2]) was 100 µM, the TGI (SK-OV-3) was 100 µM and the GI50 (UO-31; Homo sapiens) was 0.776 µM. The IC50 (UO-31; Homo sapiens) was 16.2 µM, the CC50 (UO-31; [2]) was 100 µM and the TGI (UO-31) was 22.9 µM. The GI50 (OVCAR-8; Homo sapiens) was 3.31 µM, the IC50 (OVCAR-8; Homo sapiens) was 5.01 µM and the CC50 (OVCAR-8; [2]) was 100 µM. For the same molecule, the TGI (OVCAR-8) was 40.7 µM, the TGI (DU-145) was 19.5 µM and the GI50 (DU-145; Homo sapiens) was 1.55 µM. It also gave an IC50 (DU-145; Homo sapiens) of 6.03 µM and a CC50 (DU-145; [2]) of 100 µM.
